Results: the supplement of paper PMC9663587

Columns and labels:
[1] = compound: O=C(c1cc(Cc2n[nH]c(=O)c3ccccc23)ccc1F)N1CCN(C(=O)C2CC2)CC1 [Olaparib/AZD2281]
[2] = compound: CC(C)NC[C@@H](C(=O)N1CCN(c2ncnc3c2[C@H](C)C[C@H]3O)CC1)c1ccc(Cl)cc1 [Ipatasertib/GDC0068]
[3] = compound: CN(C)C/C=C/C(=O)Nc1ccc(O[C@@H]2CCC[C@@H](Nc3ncc(Cl)c(-c4c[nH]c5ccccc45)n3)C2)cc1 [BSJ-01-175]
[4] = compound: COc1cccc2c1C(=O)c1c(O)c3c(c(O)c1C2=O)C[C@@](O)(C(=O)CO)C[C@@H]3O[C@H]1C[C@H](N)[C@H](O)[C@H](C)O1 [Doxorubicin]
[5] = compound: CC(=O)O[C@H]1C(=O)[C@@]2(C)[C@H]([C@H](OC(=O)c3ccccc3)[C@]3(O)C[C@H](OC(=O)[C@H](O)[C@@H](NC(=O)c4ccccc4)c4ccccc4)C(C)=C1C3(C)C)[C@]1(OC(C)=O)CO[C@@H]1C[C@@H]2O [Paclitaxel]
[6] = compound: CN(C)CC[C@H](CSc1ccccc1)Nc1ccc(S(=O)(=O)NC(=O)c2ccc(N3CCN(Cc4ccccc4-c4ccc(Cl)cc4)CC3)cc2)cc1[N+](=O)[O-] [ABT-737]
[7] = compound: CCNC(=O)c1noc(-c2cc(C(C)C)c(O)cc2O)c1-c1ccc(CN2CCOCC2)cc1 [Luminespib/NVP-AUY922]
[8] = compound: T1, CN1CC[C@H](c2c(O)cc(O)c3c(=O)cc(-c4ccccc4Cl)oc23)[C@H](O)C1 [Flavopiridol]
[9] = compound: Cc1nc(-c2cn3c(n2)-c2ccc(-c4cnn(C(C)(C)C(N)=O)c4)cc2OCC3)n(C(C)C)n1 [Taselisib/GDC0032]
[10] = compound: C=CC(=O)Nc1ccc(C(=O)Nc2[nH]nc3c2CN(C(=O)N[C@H](CN(C)C)c2ccccc2)C3(C)C)cc1 [YKL-5-124]; experiment: GR value, 72 h; higher = faster growth (1 = untreated, <0 = killing);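 note: breast cancer and non-malignant breast epithelial lines, nine half-log doses, viable cells counted by Hoechst and LIVE/DEAD dye imaging versus time-zero plates and DMSO controls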
[11] = compound: CC(=O)c1c(C)c2cnc(Nc3ccc(N4CCN(CCOCCOCCOCCNC(=O)COc5cccc6c5C(=O)N(C5CCC(=O)NC5=O)C6=O)CC4)cn3)nc2n(C2CCCC2)c1=O [BSJ-03-123]; experiment: as above
[12] = compound: CCc1cnn2c(NCc3ccc[n+]([O-])c3)cc(N3CCCC[C@H]3CCO)nc12; experiment: as above
[13] = compound: CN(C)C/C=C/C(=O)Nc1ccc(C(=O)N2CCC[C@@H](Nc3ncc(Cl)c(-c4c[nH]c5ccccc45)n3)C2)cc1 [THZ531]; experiment: as above
[14] = compound: CN(C)C(=O)c1cc2cnc(Nc3ccc(N4CCNCC4)cn3)nc2n1C1CCCC1 [LEE011/Ribociclib]; experiment: as above
[15] = compound: T1, Flavopiridol; experiment: as above
[16] = compound: CC(=O)c1c(C)c2cnc(Nc3ccc(N4CCNCC4)cn3)nc2n(C2CCCC2)c1=O; experiment: as above
[17] = compound: CCN1CCN(Cc2ccc(Nc3ncc(F)c(-c4cc(F)c5nc(C)n(C(C)C)c5c4)n3)nc2)CC1; experiment: as above
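Throughout, for GR50, 72 h: breast cancer and non-malignant breast epithelial cell lines, Deep Dye Drop or Dye Drop imaging, nine half-log doses, GR normalized to time-zero plates and DMSO-only controls.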

With ZR751 the “GR50, 72 h” value [1] was > 10 µM, the “GR50, 72 h” value [2] was > 10 µM and the “GR50, 72 h” value [3] was 3.46 µM. The “GR50, 72 h” value [4] was 0.0247 µM, the “GR50, 72 h” value [5] was 0.0088 µM and the “GR50, 72 h” value [6] was > 10 µM. For the same cell line, the “GR50, 72 h” value [7] was 0.0228 µM, the “GR50, 72 h” value [8] was 0.35 µM and the “GR50, 72 h” value [9] was 0.277 µM. It also gave a GR value ([10]; 0.001 µM) of 0.57 GR, a GR value ([10]; 0.003162 µM) of 0.342 GR and a GR value ([10]; 0.01 µM) of 0.325 GR. It also gave a GR value ([10]; 0.03162 µM) of 0.282 GR, a GR value ([10]; 0.1 µM) of 0.254 GR and a GR value ([10]; 0.3162 µM) of 0.238 GR. For the same cell line, the GR value ([10]; 1 µM) was 0.239 GR, the GR value ([10]; 3.162 µM) was 0.223 GR and the GR value ([10]; 10 µM) was 0.128 GR. It also gave a GR value ([11]; 0.001 µM) of 0.927 GR, a GR value ([11]; 0.003162 µM) of 0.911 GR and a GR value ([11]; 0.01 µM) of 0.863 GR. The GR value ([11]; 0.03162 µM) was 0.788 GR, the GR value ([11]; 0.1 µM) was 0.838 GR and the GR value ([11]; 0.3162 µM) was 0.697 GR. For the same cell line, the GR value ([11]; 1 µM) was 0.625 GR, the GR value ([11]; 3.162 µM) was 0.617 GR and the GR value ([11]; 10 µM) was 0.22 GR. The GR value ([12]; 0.0001 µM) was 1.03 GR, the GR value ([12]; 0.0003162 µM) was 1.04 GR and the GR value ([12]; 0.001 µM) was 1.02 GR. The GR value ([12]; 0.003162 µM) was 0.969 GR, the GR value ([12]; 0.01 µM) was 1.02 GR and the GR value ([12]; 0.03162 µM) was 0.644 GR. It also gave a GR value ([12]; 0.1 µM) of -0.456 GR, a GR value ([12]; 0.3162 µM) of -0.359 GR and a GR value ([12]; 1 µM) of -0.434 GR. The GR value ([13]; 0.0001 µM) was 1.06 GR, the GR value ([13]; 0.0003162 µM) was 0.851 GR and the GR value ([13]; 0.001 µM) was 0.958 GR. The GR value ([13]; 0.003162 µM) was 0.936 GR, the GR value ([13]; 0.01 µM) was 1.03 GR and the GR value ([13]; 0.03162 µM) was 0.969 GR. For the same cell line, the GR value ([13]; 0.1 µM) was 0.991 GR, the GR value ([13]; 0.3162 µM) was 0.856 GR and the GR value ([13]; 1 µM) was -0.208 GR. It also gave a GR value ([14]; 0.001 µM) of 0.912 GR, a GR value ([14]; 0.003162 µM) of 0.814 GR and a GR value ([14]; 0.01 µM) of 0.881 GR. For the same cell line, the GR value ([14]; 0.03162 µM) was 0.801 GR, the GR value ([14]; 0.1 µM) was 0.812 GR and the GR value ([14]; 0.3162 µM) was 0.667 GR. For the same cell line, the GR value ([14]; 1 µM) was 0.737 GR, the GR value ([14]; 3.162 µM) was 0.603 GR and the GR value ([14]; 10 µM) was 0.351 GR. The GR value ([15]; 0.0001 µM) was 0.988 GR, the GR value ([15]; 0.0003162 µM) was 0.993 GR and the GR value ([15]; 0.001 µM) was 0.995 GR. The GR value ([15]; 0.003162 µM) was 0.915 GR, the GR value ([15]; 0.01 µM) was 0.952 GR and the GR value ([15]; 0.03162 µM) was 0.988 GR. The GR value ([15]; 0.1 µM) was 0.935 GR, the GR value ([15]; 0.3162 µM) was 0.577 GR and the GR value ([15]; 1 µM) was -0.371 GR. It also gave a GR value ([16]; 0.0003162 µM) of 1.02 GR, a GR value ([16]; 0.001 µM) of 0.998 GR and a GR value ([16]; 0.003162 µM) of 1.03 GR. The GR value ([16]; 0.01 µM) was 1.02 GR, the GR value ([16]; 0.03162 µM) was 1.02 GR and the GR value ([16]; 0.1 µM) was 0.844 GR. The GR value ([16]; 0.3162 µM) was 0.719 GR, the GR value ([16]; 1 µM) was 0.637 GR and the GR value ([16]; 3.162 µM) was 0.489 GR. The GR value ([17]; 0.001 µM) was 0.95 GR, the GR value ([17]; 0.003162 µM) was 0.94 GR and the GR value ([17]; 0.01 µM) was 0.843 GR. For the same cell line, the GR value ([17]; 0.03162 µM) was 0.604 GR, the GR value ([17]; 0.1 µM) was 0.461 GR and the GR value ([17]; 0.3162 µM) was 0.366 GR. It also gave a GR value ([17]; 1 µM) of 0.351 GR, a GR value ([17]; 3.162 µM) of 0.309 GR and a GR value ([17]; 10 µM) of 0.38 GR.

For HCC1428, the “GR50, 72 h” value [1] was 0.553 µM, the “GR50, 72 h” value [2] was > 10 µM and the “GR50, 72 h” value [4] was 0.00474 µM. The “GR50, 72 h” value [5] was 0.00862 µM, the “GR50, 72 h” value [6] was 4 µM and the “GR50, 72 h” value [7] was 0.00286 µM. For the same cell line, the “GR50, 72 h” value [9] was 4.21 µM, the GR value ([12]; 0.0001 µM) was 1.11 GR and the GR value ([12]; 0.0003162 µM) was 1.09 GR. The GR value ([12]; 0.001 µM) was 0.975 GR, the GR value ([12]; 0.003162 µM) was 0.984 GR and the GR value ([12]; 0.01 µM) was 0.871 GR. The GR value ([12]; 0.03162 µM) was -0.205 GR, the GR value ([12]; 0.1 µM) was -0.538 GR and the GR value ([12]; 0.3162 µM) was -0.619 GR. The GR value ([12]; 1 µM) was -0.67 GR, the GR value ([16]; 0.0003162 µM) was 1.05 GR and the GR value ([16]; 0.001 µM) was 1.07 GR. The GR value ([16]; 0.003162 µM) was 1.14 GR, the GR value ([16]; 0.01 µM) was 0.874 GR and the GR value ([16]; 0.03162 µM) was 0.729 GR. For the same cell line, the GR value ([16]; 0.1 µM) was 0.434 GR, the GR value ([16]; 0.3162 µM) was 0.313 GR and the GR value ([16]; 1 µM) was 0.247 GR. For the same cell line, the GR value ([16]; 3.162 µM) was 0.268 GR, the GR value ([17]; 0.001 µM) was 0.945 GR and the GR value ([17]; 0.003162 µM) was 0.654 GR. For the same cell line, the GR value ([17]; 0.01 µM) was 0.515 GR, the GR value ([17]; 0.03162 µM) was 0.31 GR and the GR value ([17]; 0.1 µM) was 0.228 GR. For the same cell line, the GR value ([17]; 0.3162 µM) was 0.25 GR, the GR value ([17]; 1 µM) was 0.234 GR and the GR value ([17]; 3.162 µM) was 0.181 GR. For the same cell line, the GR value ([17]; 10 µM) was 0.0475 GR.
